Experimental data as given in patent publication US12077503B2, “Substituted cyclic amides and their use as herbicides” (FMC CORPORATION, priority 2015, dated 2024).

How the values were obtained:
Assay type in all cases: in vivo
[1] = tested on: ducksalad (Heteranthera limosa); experiment: Test B flooded paddy test; details: Flood, 250 g ai/ha; 0 to 100 scale where 0 is no effect and 100 is complete control; 13 to 15 d
Method in brief: (§1)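 Flooding to 3 cm over soil accompanied treatment, which consisted of adding compound to the standing water around 2-leaf plants; depth was then maintained. Visual assessment versus controls followed at 13 to 15 d (scale 0–100, 0 meaning no effect).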

[2] = tested on: barnyardgrass (Echinochloa crus-galli); experiment: Test B flooded paddy test; details: Flood, 250 g ai/ha; 0 to 100 scale where 0 is no effect and 100 is complete control; 13 to 15 d
Method in brief: as §1

rice (Oryra sativa) = experiment: Test B flooded paddy test; details: Flood, 250 g ai/ha; 0 to 100 scale where 0 is no effect and 100 is complete control; 13 to 15 d
Method in brief: as §1

[3] = tested on: sedge, umbrella (small-flower umbrella sedge, Cyperus difformis); experiment: Test B flooded paddy test; details: Flood, 250 g ai/ha
Method in brief: as §1

[4] = tested on: blackgrass (Alopecurus myosuroides); experiment: Test A postemergence; details: postemergence, 0 to 100 scale (0 no effect, 100 complete control)
Method in brief: (§2)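 Seeds sprayed preemergence with a directed soil spray, or plants at 2 to 10 cm height and one- to two-leaf stage sprayed postemergence, with test chemicals in a non-phytotoxic solvent mixture containing surfactant, in loam soil–sand blend. Injury rated visually against untreated controls after about 10 d in greenhouse, 0 (no effect) to 100 (complete control).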

[5] = tested on: pigweed (Amaranthus retroflexus); experiment: Test A postemergence; details: postemergence, 0 to 100 scale (0 no effect, 100 complete control)
Method in brief: as §2

[6] = tested on: barnyardgrass (Echinochloa crus-galli); experiment: Test A postemergence; details: postemergence, 0 to 100 scale (0 no effect, 100 complete control)
Method in brief: as §2

[7] = tested on: wheat (Triticum aestivum); experiment: Test A postemergence; details: postemergence, 0 to 100 scale (0 no effect, 100 complete control)
Method in brief: as §2

[8] = tested on: ryegrass, Italian (Italian ryegrass, Lolium multiflorum); experiment: Test A postemergence; details: postemergence, 0 to 100 scale (0 no effect, 100 complete control)
Method in brief: as §2

corn (Zea mays) = experiment: Test A postemergence; details: postemergence, 0 to 100 scale (0 no effect, 100 complete control)
Method in brief: as §2

[9] = tested on: Galium (catchweed bedstraw, Galium aparine); experiment: Test A postemergence; details: postemergence, 0 to 100 scale (0 no effect, 100 complete control)
Method in brief: as §2

[10] = tested on: giant foxtail (Setaria faberii); experiment: Test A postemergence; details: postemergence, 0 to 100 scale (0 no effect, 100 complete control)
Method in brief: as §2

[11] = tested on: ragweed (common ragweed, Ambrosia elatior); experiment: Test A postemergence; details: postemergence, 0 to 100 scale (0 no effect, 100 complete control)
Method in brief: as §2

Kochia (Kochia scoparia) [12] = experiment: Test A postemergence; details: postemergence, 0 to 100 scale (0 no effect, 100 complete control)
Method in brief: as §2

[13] = tested on: pigweed (Amaranthus retroflexus); experiment: Test A preemergence
[14] = tested on: barnyardgrass (Echinochloa crus-galli); experiment: Test A preemergence
Method in brief: as §2

[15] = tested on: ryegrass, Italian (Italian ryegrass, Lolium multiflorum); experiment: Test A preemergence
Method in brief: as §2

[16] = tested on: giant foxtail (Setaria faberii); experiment: Test A preemergence
Method in brief: as §2

[17] = tested on: ragweed (common ragweed, Ambrosia elatior); experiment: Test A preemergence
Method in brief: as §2

Kochia (Kochia scoparia) [18] = experiment: Test A preemergence
Method in brief: as §2

[19] = tested on: ragweed (common ragweed, Ambrosia elatior); experiment: Test C preemergence; details: for Plant response rating (scale of 0 to 100), Ragweed: 0 is no effect, 100 is complete control; for Plant response rating, Ragweed: scale 0 to 100, 0 no effect, 100 complete control
Method in brief: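 Preemergence application to seeds in loam/sand soil, or foliar (postemergence) application to plants 2–18 cm tall in peat moss/vermiculite medium; surfactant-containing non-phytotoxic solvent vehicle; greenhouse. Visual injury vs controls at 13–15 d; 0 = no effect, 100 = complete control.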

[20] = 125 g ai/ha, visual rating after approx. 10 d
[21] = 500 g ai/ha, visual injury, approx. 10 d
[22] = 125 g ai/ha, Preemergence, visual injury after approximately 10 d, 0 to 100 scale where 0 is no effect and 100 is complete control
[23] = 500 g ai/ha, preemergence, 0 to 100 scale, 0 = no effect, 100 = complete control
[24] = 125 g ai/ha, visual injury after approximately 10 d
[25] = 125 g ai/ha, preemergence, visual rating after approx. 10 d, 0 to 100 scale where 0 is no effect and 100 is complete control

SMILES | Plant response rating, Ducksalad [1] | Plant response rating, Barnyardgrass [2] | Plant response rating, Rice (rice (Oryra sativa)) | Plant response rating, Blackgrass [4, 20] | Plant response rating, Blackgrass [4, 21] | Plant response rating, Pigweed [5, 21] | Plant response rating, Barnyardgrass [6, 20] | Plant response rating, Barnyardgrass [6, 21] | Plant response rating, Wheat [7, 21] | Plant response rating, Ryegrass, Italian [8, 21] | Plant response rating, Corn (corn (Zea mays); [21]) | Plant response rating, Galium [9, 21] | Plant response rating, Foxtail, Giant [10, 21] | Plant response rating, Ragweed [11, 21] | Plant response rating, Kochia (Kochia (Kochia scoparia) [12]; [21]) | Plant response rating, Pigweed [13, 23] | Plant response rating, Barnyardgrass [14, 22] | Plant response rating, Barnyardgrass [14, 23] | Plant response rating, Ryegrass, Italian [15, 23] | Plant response rating, Foxtail, Giant [16, 22] | also measured
CN1CC(c2cc(F)cc(F)c2)C(C(=O)Nc2ccc(F)c(F)c2F)C1=O (centres unmarked) [Compound 646] | 98 | 80 | 25 | 70 | 80 | 20 | 90 | 90 | 70 | 70 | 80 | 50 | 90 | 40 | 70 | 70 | 90 | 90 | 90 | 90 | Plant response rating, Sedge, Umbrella ([3]; 0 to 100 scale where 0 is no effect and 100 is complete control, 13 to 15 d): 0; Plant response rating, Pigweed [5, 20]: 20; Plant response rating, Wheat [7, 20]: 40; Plant response rating, Ryegrass, Italian [8, 20]: 60; Plant response rating, Corn (corn (Zea mays); [20]): 70; Plant response rating, Galium [9, 20]: 40; Plant response rating, Foxtail, Giant [10, 20]: 90; Plant response rating, Ragweed [11, 20]: 0; Plant response rating, Kochia (Kochia (Kochia scoparia) [12]; [20]): 60; Plant response rating, Pigweed [13, 22]: 60; Plant response rating, Ryegrass, Italian [15, 22]: 60; Plant response rating, Foxtail, Giant [16, 23]: 100; Plant response rating, Ragweed [17, 22]: 60; Plant response rating, Ragweed [17, 23]: 70; Plant response rating, Kochia (Kochia (Kochia scoparia) [18]; [22]): 60; Plant response rating, Kochia (Kochia (Kochia scoparia) [18]; [23]): 70; Plant response rating (scale of 0 to 100), Ragweed ([19]; 31 g ai/ha): 20; Plant response rating, Ragweed ([19]; 62 g ai/ha): 30; Plant response rating, Ragweed ([19]; 125 g ai/ha): 60; Plant response rating, Ragweed ([19]; 250 g ai/ha): 70
CN1CC(c2ccc(C(C)(F)F)cc2)C(C(=O)Nc2cccc(F)c2F)C1=O (centres unmarked) [Compound 690] | 75 | 50 | 0 | 60 | 70 | 70 | 80 | 80 | 60 | 60 | 80 | 70 | 80 | 70 | 70 | 90 | 90 | 90 | 70 | 90 | Sedge, Umbrella plant response rating ([3]; scale of 0 to 100 where 0 is no effect and 100 is complete control): 0; Plant response rating, Pigweed [5, 24]: 60; Plant response rating, Wheat [7, 24]: 50; Plant response rating, Ryegrass, Italian [8, 24]: 50; Plant response rating, Corn (corn (Zea mays); [24]): 70; Plant response rating, Galium [9, 24]: 70; Plant response rating, Foxtail, Giant [10, 24]: 80; Plant response rating, Ragweed [11, 24]: 60; Plant response rating, Kochia (Kochia (Kochia scoparia) [12]; [24]): 50; Plant response rating, Pigweed [13, 25]: 80; Plant response rating, Ryegrass, Italian [15, 25]: 60; Plant response rating, Foxtail, Giant [16, 23]: 90; Plant response rating, Ragweed [17, 25]: 70; Plant response rating, Ragweed [17, 23]: 80; Plant response rating, Kochia (Kochia (Kochia scoparia) [18]; [22]): 80; Plant response rating, Kochia (Kochia (Kochia scoparia) [18]; [23]): 90; Plant response rating (scale of 0 to 100), Ragweed ([19]; 8 g ai/ha): 0; Plant response rating (scale of 0 to 100), Ragweed ([19]; 16 g ai/ha): 10; Plant response rating (scale of 0 to 100), Ragweed ([19]; 31 g ai/ha): 25; Plant response rating, Ragweed ([19]; 62 g ai/ha): 80
